Measurements published in ChEMBL document CHEMBL1201862, “PubChem BioAssay data set” (2004).
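The compound was tested at five concentrations on cells cultured in 96-well plates, with a 48-hour exposure period. The concentration for 50% growth inhibition is given as GI50.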 Calls of active or inactive are those of the source. No stated cut-off is given here; in the data, active = GI50 up to about 1.1 µM and inactive = higher.

How the values were obtained:
Experiment in all cases: NCI-60 cell line screen, 48 h
HOP-62 = tested on: HOP-62
NCI-H522 = tested on: NCI-H522
UACC-62 = tested on: UACC-62
Malme-3M = tested on: Malme-3M
OVCAR-8 = tested on: OVCAR-8
SF-539 = tested on: SF-539
SN12C = tested on: SN12C
MDA-MB-435 = tested on: MDA-MB-435
M14 = tested on: M14
NCI-H23 = tested on: NCI-H23
HCC 2998 = tested on: HCC 2998
A549 = tested on: A549
HOP-92 = tested on: HOP-92
786-0 = tested on: 786-0
HCT-15 = tested on: HCT-15
IGROV-1 = tested on: IGROV-1
RXF 393 = tested on: RXF 393
LOX IMVI = tested on: LOX IMVI
HL-60 = tested on: HL-60
KM12 = tested on: KM12

SMILES	GI50 (HOP-62)	GI50 (NCI-H522)	GI50 (UACC-62)	GI50 (Malme-3M)	GI50 (OVCAR-8)	GI50 (SF-539)	GI50 (SN12C)	GI50 (MDA-MB-435)	GI50 (M14)	GI50 (NCI-H23)	GI50 (HCC 2998)	GI50 (A549)	GI50 (HOP-92)	GI50 (786-0)	GI50 (HCT-15) [µM]	GI50 (IGROV-1)	GI50 (RXF 393)	GI50 (LOX IMVI)	GI50 (HL-60)	GI50 (KM12)
O=C1Nc2nnc(S)n2NC12c1ccccc1-c1ccccc12	> 100 µM (inactive)	> 100 µM (inactive)	22.4 µM (inactive)	> 100 µM (inactive)	> 100 µM (inactive)	> 100 µM (inactive)	> 100 µM (inactive)	16.8 µM (inactive)	52 µM (inactive)	> 100 µM (inactive)	> 100 µM (inactive)	> 100 µM (inactive)	> 100 µM (inactive)	> 100 µM (inactive)	97.3	96.6 µM (inactive)	> 100 µM (inactive)	58.9 µM (inactive)	> 100 µM (inactive)	
Cc1n[nH]c(=O)n1C1CCCC1	> 100 µM (inactive)	> 100 µM (inactive)		> 100 µM (inactive)	> 100 µM (inactive)	> 100 µM (inactive)	> 100 µM (inactive)	> 100 µM (inactive)	> 100 µM (inactive)	> 100 µM (inactive)	> 100 µM (inactive)	> 100 µM (inactive)	> 100 µM (inactive)	> 100 µM (inactive)	> 100	> 100 µM (inactive)	> 100 µM (inactive)	> 100 µM (inactive)	> 100 µM (inactive)	> 100 µM (inactive)
CC(=O)C1C(=O)C(=O)N(c2cccc([N+](=O)[O-])c2)C1=O (stereo not drawn)	> 100 µM (inactive)	> 100 µM (inactive)	> 100 µM (inactive)		> 100 µM (inactive)	> 100 µM (inactive)	> 100 µM (inactive)	> 100 µM (inactive)	> 100 µM (inactive)	> 100 µM (inactive)	> 100 µM (inactive)	> 100 µM (inactive)	> 100 µM (inactive)	> 100 µM (inactive)	> 100	> 100 µM (inactive)	> 100 µM (inactive)	> 100 µM (inactive)	> 100 µM (inactive)	> 100 µM (inactive)
O=c1cc(C(F)(F)F)c2cc3c(cc2o1)NCCC3	17.1 µM (inactive)	49.5 µM (inactive)		> 100 µM (inactive)	42.2 µM (inactive)	> 100 µM (inactive)	> 100 µM (inactive)	> 100 µM (inactive)	> 100 µM (inactive)	> 100 µM (inactive)	> 100 µM (inactive)	> 100 µM (inactive)	46.1 µM (inactive)	35.2 µM (inactive)	> 100	97.3 µM (inactive)	< 0.01 µM (active)	> 100 µM (inactive)	> 100 µM (inactive)	> 100 µM (inactive)
Cc1[nH]n(-c2ccc(S(=O)(=O)O)cc2)c(=O)c1/N=N/c1ccccc1	> 100 µM (inactive)	35 µM (inactive)	95.1 µM (inactive)	51.6 µM (inactive)	> 100 µM (inactive)	> 100 µM (inactive)	> 100 µM (inactive)	> 100 µM (inactive)	> 100 µM (inactive)	> 100 µM (inactive)	8.04 µM (inactive)	> 100 µM (inactive)	> 100 µM (inactive)	> 100 µM (inactive)	> 100	> 100 µM (inactive)	> 100 µM (inactive)	26.7 µM (inactive)		> 100 µM (inactive)
CC(C)(C)OC(=O)Nc1nnc(S(N)(=O)=O)s1	> 100 µM (inactive)	> 100 µM (inactive)	> 100 µM (inactive)	> 100 µM (inactive)	> 100 µM (inactive)	> 100 µM (inactive)	> 100 µM (inactive)	> 100 µM (inactive)	> 100 µM (inactive)	> 100 µM (inactive)	> 100 µM (inactive)	> 100 µM (inactive)	> 100 µM (inactive)	> 100 µM (inactive)	> 100		> 100 µM (inactive)	> 100 µM (inactive)	> 100 µM (inactive)	> 100 µM (inactive)
CC(=O)Oc1ccc(/C=C/C(=O)NCCOC(=O)/C=C/c2ccc(OC(C)=O)c(OC(C)=O)c2)cc1OC(C)=O	21.9 µM (inactive)	8.97 µM (inactive)	18.7 µM (inactive)	28.5 µM (inactive)	25.2 µM (inactive)	35.7 µM (inactive)	26.1 µM (inactive)	31.7 µM (inactive)	27.8 µM (inactive)	26.4 µM (inactive)	34.3 µM (inactive)	57.5 µM (inactive)	28.2 µM (inactive)	19.5 µM (inactive)	34.8	33 µM (inactive)	11.7 µM (inactive)	13.9 µM (inactive)		32.4 µM (inactive)
